Measured values as given in ChEMBL document CHEMBL1138777, “Frontal affinity chromatography with MS detection of EphB2 tyrosine kinase receptor. 1. Comparison with conventional ELISA” (J Med Chem, 2004).

Tests used:
[1] = Binding constant for EphB2 tyrosine kinase
[2] = Inhibition of EphB2 receptor tyrosine kinase in ELISA assay

Structure (SMILES)	Kd [1]	IC50 [2]
CN(C)c1ccc(/C=C2\C(=O)Nc3ccccc32)cc1	19.5 µM	27.5 µM
COc1cc2ncnc(Nc3cccc(O)c3)c2cc1OC	2.4 µM	1.2 µM
COc1cc2ncnc(Nc3cccc(Br)c3)c2cc1OC	8.1 µM	10.2 µM
CNc1cc2c(Nc3cccc(Br)c3)ncnc2cn1	21.9 µM	34 µM
CC(C)(C)n1nc(-c2ccc(Cl)cc2)c2c(N)ncnc21	36.5 µM	52 µM
COc1cc2ncnc(Nc3ccc(Oc4ccccc4)cc3)c2cc1OC	58.4 µM	86 µM
